Test results published in ChEMBL document CHEMBL1177707 (J Med Chem, 2010).

What was measured:
[1] = biological target: Inosine-5'-monophosphate dehydrogenase 2 (Homo sapiens, UniProt P12268); test: Inhibition of human IMPDH2
[2] = biological target: Inosine-5'-monophosphate dehydrogenase 1 (Homo sapiens, UniProt P20839); test: Inhibition of human IMPDH1
[3] = Inhibition of N-terminal His-tagged Mycobacterium tuberculosis H37Rv IMPDH; details: read-out: Ki(app)

Inosine-5'-monophosphate dehydrogenase 1, sequence (P20839 whole entry): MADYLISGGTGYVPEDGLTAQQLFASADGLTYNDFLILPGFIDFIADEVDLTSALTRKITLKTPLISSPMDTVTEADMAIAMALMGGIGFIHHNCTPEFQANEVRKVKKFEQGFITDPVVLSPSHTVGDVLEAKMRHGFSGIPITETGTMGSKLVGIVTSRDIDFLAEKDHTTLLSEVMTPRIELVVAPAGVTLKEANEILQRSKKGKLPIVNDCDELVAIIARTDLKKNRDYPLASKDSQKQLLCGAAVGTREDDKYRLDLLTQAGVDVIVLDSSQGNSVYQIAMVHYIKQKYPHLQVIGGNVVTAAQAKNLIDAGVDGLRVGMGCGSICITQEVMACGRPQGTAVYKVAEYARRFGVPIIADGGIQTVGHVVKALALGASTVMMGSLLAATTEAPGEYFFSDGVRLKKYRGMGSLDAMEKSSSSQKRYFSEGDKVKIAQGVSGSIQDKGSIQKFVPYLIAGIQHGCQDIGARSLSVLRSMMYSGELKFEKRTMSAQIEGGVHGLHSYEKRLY

Row | SMILES | Ki [3] [nM] | Ki ([2]; read-out: Ki) [nM] | other results
1 | COc1c(C)c2c(c(O)c1C/C=C(\C)COP(=O)(O)CP(=O)(O)OC[C@H]1O[C@@H](n3cnc4c(N)ncnc43)[C@H](O)[C@@H]1O)C(=O)OC2 | > 100000 |  | Ki ([1]; read-out: Ki(app)): 380 nM; Ki ([2]; read-out: Ki(app)): 520 nM
2 | COc1c(C)c2c(c(O)c1C/C=C(\C)CCC(=O)O)C(=O)OC2 [MYCOPHENOLIC ACID] | 62000 |  | 
3 | COc1c(C)c2c(c(O)c1CCn1cc(COC[C@H]3O[C@@H](n4cnc5c(N)ncnc54)[C@H](O)[C@@H]3O)nn1)C(=O)OC2 | > 100000 | 1500 | Ki ([1]; read-out: Ki): 200 nM
4 | CCc1nc(N)c2ncn([C@@H]3O[C@H](CNS(=O)(=O)CS(=O)(=O)NCCc4c(O)c5c(c(C)c4OC)COC5=O)[C@@H](O)[C@H]3O)c2n1 | > 100000 |  | 
5 | C#Cc1nc(N)c2ncn([C@@H]3O[C@H](CNS(=O)(=O)CS(=O)(=O)NCCc4c(O)c5c(c(C)c4OC)COC5=O)[C@@H](O)[C@H]3O)c2n1 | > 100000 |  | 
6 | COc1c(C)c2c(c(O)c1CCNCc1cn(C[C@H]3O[C@@H](n4cnc5c(N)ncnc54)[C@H](O)[C@@H]3O)nn1)C(=O)OC2 | > 100000 | 14000 | Ki ([1]; read-out: Ki): 2200 nM
7 | COc1c(C)c2c(c(O)c1CCNS(=O)(=O)CS(=O)(=O)NC[C@H]1O[C@@H](n3cnc4c(N)nc(-c5ccccc5)nc43)[C@H](O)[C@@H]1O)C(=O)OC2 | > 100000 |  | 
8 | COc1c(C)c2c(c(O)c1CCOP(=O)(O)CP(=O)(O)OC[C@H]1O[C@@H](n3cnc4c(N)nc(-c5ccccc5)nc43)[C@H](O)[C@@H]1O)C(=O)OC2 | > 100000 |  | 
9 | COc1c(C)c2c(c(O)c1C/C=C(\C)Cn1cc(COC[C@H]3O[C@@H](n4cnc5c(N)ncnc54)[C@H](O)[C@@H]3O)nn1)C(=O)OC2 |  | 70 | 
